Experimental data: patent US20230413824A1, “AGROCHEMICAL COMPOSITION COMPRISING 3-SUBSTITUTED PHENYLAMIDINE COMPOUNDS AND USE THEREOF” (PI INDUSTRIES LIMITED, priority 2020, published 2023)
Like-named read-outs stand apart in the source and are kept apart here.

How the values were obtained:
Assay type in all cases: in vivo
Septoria nodorum = experiment: Parastagonospora nodorum/Septoria nodorum/Stagnospora nodorum test in wheat (preventive, glasshouse); settings: single compound
Method: The single compounds or compound combinations were dissolved in 2% DMSO/Acetone and then mixed with water containing emulsifier to a calibrated spray volume of 50 mL. The spray solutions were poured into spray bottles for further applications.
To test the preventive activity of compounds, healthy young wheat plants, raised in the greenhouse, were sprayed with the single compound or mixture preparation at the stated application rates inside the spray cabinets using hollow cone nozzles. One day after treatment, the plants were inoculated with a suspension containing 2.8×10^6 Stagnospora nodorum inoculum. The inoculated plants were then kept in a greenhouse chamber at 22-25° C. temperature and 90-100% relative humidity for disease expression.
A visual assessment of the performance of the compounds and respective compound combinations was carried out by rating the disease severity (0-100% scale) on treated plants 3, 7 and 10 days after application. Efficacy (% control) of the compounds was calculated by comparing the disease rating in the treatment with the one of the untreated control. The compounds were also assessed for their plant compatibility by recording symptoms like necrosis, chlorosis & stunting. The results are shown for the compound of formula (I-1) to (I-5) in Table E1-E5.

Erysiphe cichoracearum = Erysiphe cichoracearum test in cucumber (preventive, glasshouse); settings: single compound
Alternaria solani = Alternaria solani test in tomato (preventive, glasshouse); settings: for pest or weed control at 0.05 ppm / pest or weed control at 0.1 ppm / pest or weed control at 1 ppm / pest or weed control at 5 ppm / pest or weed control at 20 ppm: Alternaria solani
Botrytis cinerea = Botrytis cinerea test in tomato (preventive, glasshouse); settings: single compound; for pest or weed control at 1 ppm: Conc. 1 ppm; for pest or weed control at 5 ppm: Conc. 5 ppm; for pest or weed control at 20 ppm: Conc. 20 ppm
Phakopsora pachyrhizi = Phakopsora pachyrhizi test in soybean (preventive, glasshouse); settings: single compound
Pyricularia oryzae = experiment: whole plant or invertebrate; settings: for Observed Efficacy: single compound, preventive spray, rice
[1] = 0.05 ppm, preventive spray on cucumber
[2] = 0.1 ppm, preventive spray on cucumber
[3] = Table B3, single compound, Conc. 0.05 ppm, preventive
[4] = Table B3, single compound, Conc. 0.1 ppm, preventive
[5] = single compound, 0.05 ppm, preventive
[6] = single compound, 0.05 ppm, preventive spray
[7] = single compound, 0.1 ppm, preventive
[8] = single compound, 0.1 ppm, preventive spray
[9] = Conc. 0.1 ppm, preventive spray on tomato, % control vs untreated
[10] = 0.05 ppm, preventive spray on soybean
[11] = 0.1 ppm, preventive spray on soybean
[12] = Conc. 0.05 ppm, soybean, preventive, Table D4
[13] = Conc. 0.05 ppm, soybean, preventive, Table D5
[14] = Conc. 0.1 ppm, soybean, preventive, Table D4
[15] = Conc. 0.1 ppm, soybean, preventive, Table D5
[16] = Table B4, single compound, Conc. 0.05 ppm, preventive
[17] = Table B4, single compound, Conc. 0.1 ppm, preventive
[18] = Pyricularia oryzae, read-out: Observed Efficacy
[19] = single compound, Conc. 0.05 ppm, preventive spray
[20] = Parastagonospora nodorum, read-out: Observed Efficacy (%)
[21] = single compound, preventive, read-out: Observed Efficacy (%)
[22] = Table F5, Botrytis cinerea in tomato, preventive, read-out: Observed Efficacy (%)
[23] = single compound, preventive spray, read-out: Observed Efficacy (%)
[24] = Botrytis cinerea, preventive spray on tomato, % control vs untreated, read-out: Observed Efficacy (%)

Structure (SMILES) | Observed Efficacy (%) (Septoria nodorum; 0.05 ppm) | Observed Efficacy (%) (Septoria nodorum; 0.1 ppm) | Observed Efficacy (%) (Erysiphe cichoracearum; [1]) | Observed Efficacy (%) (Erysiphe cichoracearum; 0.1 ppm, cucumber, preventive) | Observed Efficacy (%) (Erysiphe cichoracearum; [2]) | Observed Efficacy (%) (Alternaria solani; [3]) | Observed Efficacy (%) (Alternaria solani; [4]) | Observed Efficacy (%) (Alternaria solani; [5]) | Observed Efficacy (%) (Alternaria solani; [6]) | Observed Efficacy (%) (Alternaria solani; [7]) | Observed Efficacy (%) (Alternaria solani; [8]) | Observed Efficacy (%) (Botrytis cinerea; [9]) | Observed Efficacy (%) (Phakopsora pachyrhizi; [10]) | Observed Efficacy (%) (Phakopsora pachyrhizi; [11]) | Observed Efficacy (%) (Phakopsora pachyrhizi; [12]) | Observed Efficacy (%) (Phakopsora pachyrhizi; [13]) | Observed Efficacy (%) (Phakopsora pachyrhizi; [14]) | Observed Efficacy (%) (Phakopsora pachyrhizi; [15]) | Observed Efficacy (Pyricularia oryzae; Conc. 0.05 ppm) [%] | Observed Efficacy (Pyricularia oryzae; Conc. 0.1 ppm) [%] | further results
CO/C=C(/C(=O)OC)c1ccccc1COc1cccc(C(F)(F)F)n1 [Picoxystrobin, picoxystrobin] | 12 | 26 | 19 | 43 | 43 | 23 | 26 | 23 | 23 | 26 | 26 | 38 | 20 | 28 | 20 | 20 | 28 | 28 | 16 | 33 | Observed Efficacy (%) (Erysiphe cichoracearum; 0.05 ppm, cucumber, preventive): 19%
CNC(=O)/C(=N/OC)c1ccccc1Oc1ccccc1 [Metominostrobin, metominostrobin] |  |  | 14 |  |  |  | 31 | 26 |  | 31 |  |  |  |  |  | 45 |  |  |  |  | pest or weed control at 0.05 ppm (Septoria nodorum; Parastagonospora nodorum, 0.05 ppm, read-out: Observed Efficacy (%)): 6%; pest or weed control at 0.1 ppm (Septoria nodorum; Parastagonospora nodorum, 0.1 ppm, read-out: Observed Efficacy (%)): 12%; pest or weed control at 0.05 ppm (Erysiphe cichoracearum; Golovinomyces cichoracearum, 0.05 ppm, cucumber, preventive, read-out: Observed Efficacy (%)): 14%; pest or weed control at 0.1 ppm (Erysiphe cichoracearum; Golovinomyces cichoracearum, 0.1 ppm, cucumber, preventive, read-out: Observed Efficacy (%)): 57%; pest or weed control at 0.05 ppm (Alternaria solani; single compound, 0.05 ppm, preventive spray, read-out: Observed Efficacy (%)): 26%; pest or weed control at 0.1 ppm (Alternaria solani; single compound, 0.1 ppm, preventive spray, read-out: Observed Efficacy (%)): 31%; pest or weed control at 0.05 ppm (Alternaria solani; single compound, Conc. 0.05 ppm, preventive spray, read-out: Observed Efficacy): 26%; pest or weed control at 0.1 ppm (Alternaria solani; single compound, Conc. 0.1 ppm, preventive spray, read-out: Observed Efficacy): 31%; Observed Efficacy (%) (Alternaria solani; [16]): 26%; Observed Efficacy (%) (Alternaria solani; [17]): 31%; pest or weed control at 0.1 ppm (Botrytis cinerea; Table F5, Conc. 0.1 ppm, Botrytis cinerea in tomato, preventive, read-out: Observed Efficacy (%)): 40%; pest or weed control at 0.05 ppm (Phakopsora pachyrhizi; Phakopsora pachyrhizi, Conc. 0.05 ppm, soybean, preventive, Table D4, read-out: Observed Efficacy (%)): 45%; pest or weed control at 0.1 ppm (Phakopsora pachyrhizi; Phakopsora pachyrhizi, Conc. 0.1 ppm, soybean, preventive, Table D5, read-out: Observed Efficacy (%)): 56%; pest or weed control at 0.05 ppm (Pyricularia oryzae; [18]): 17%; pest or weed control at 0.1 ppm (Pyricularia oryzae; [18]): 33%
CO/C=C(/C(=O)OC)c1ccccc1Oc1cc(Oc2ccccc2C#N)ncn1 [Azoxystrobin, azoxystrobin] | 42 | 47 |  | 50 | 50 | 33 | 49 | 33 | 33 | 49 | 49 | 45 | 15 | 22 | 15 | 15 | 22 | 22 | 21 | 26 | Observed Efficacy (Alternaria solani; [19]): 33%; Observed Efficacy (Alternaria solani; single compound, Conc. 0.1 ppm, preventive spray): 49%
CCN(C)C=Nc1cc(F)cc(Cc2cccc(C)c2)c1C [Compound (I-5), N-ethyl-N′-(5-fluoro-2-methyl-3-(3-methylbenzyl)phenyl)-N-methylformimidamide] |  |  |  |  |  |  |  |  |  |  |  |  |  |  |  |  |  |  |  |  | pest or weed control at 1 ppm (Septoria nodorum; [20]): 23%; pest or weed control at 5 ppm (Septoria nodorum; [20]): 33%; pest or weed control at 20 ppm (Septoria nodorum; [20]): 40%; pest or weed control at 1 ppm (Erysiphe cichoracearum; Golovinomyces cichoracearum, 1 ppm, preventive spray on cucumber, read-out: Observed Efficacy (%)): 23%; pest or weed control at 5 ppm (Erysiphe cichoracearum; Golovinomyces cichoracearum, 5 ppm, preventive spray on cucumber, read-out: Observed Efficacy (%)): 47%; pest or weed control at 20 ppm (Erysiphe cichoracearum; Golovinomyces cichoracearum, 20 ppm, preventive spray on cucumber, read-out: Observed Efficacy (%)): 77%; pest or weed control at 1 ppm (Alternaria solani; [21]): 13%; pest or weed control at 5 ppm (Alternaria solani; [21]): 17%; pest or weed control at 20 ppm (Alternaria solani; [21]): 27%; pest or weed control at 1 ppm (Botrytis cinerea; [22]): 53%; pest or weed control at 5 ppm (Botrytis cinerea; [22]): 63%; pest or weed control at 20 ppm (Botrytis cinerea; [22]): 73%; pest or weed control at 0.0001 ppm (Phakopsora pachyrhizi; Phakopsora pachyrhizi, Conc. 0.0001 ppm, soybean, preventive, Table D5, read-out: Observed Efficacy (%)): 37%; pest or weed control at 0.001 ppm (Phakopsora pachyrhizi; Phakopsora pachyrhizi, Conc. 0.001 ppm, soybean, preventive, Table D5, read-out: Observed Efficacy (%)): 50%; pest or weed control at 0.01 ppm (Phakopsora pachyrhizi; Phakopsora pachyrhizi, Conc. 0.01 ppm, soybean, preventive, Table D5, read-out: Observed Efficacy (%)): 61%; pest or weed control at 1 ppm (Pyricularia oryzae; [18]): 23%; pest or weed control at 5 ppm (Pyricularia oryzae; [18]): 37%; pest or weed control at 20 ppm (Pyricularia oryzae; [18]): 47%
Cn1cc(C(=O)Nc2cccc3c2[C@@H]2CC[C@H]3C2=C(Cl)Cl)c(C(F)F)n1 (racemic) [Benzovindiflupyr, benzovindiflupyr] | 29 |  | 24 | 29 | 29 | 14 | 29 | 14 | 14 | 29 | 29 | 42 | 27 | 38 | 27 | 27 | 38 | 38 | 17 |  | Observed Efficacy (%) (Erysiphe cichoracearum; 0.05 ppm, cucumber, preventive): 24%; Observed Efficacy (%) (Alternaria solani; [16]): 14%; Observed Efficacy (%) (Alternaria solani; [17]): 29%; Observed Efficacy (%) (Botrytis cinerea; Table F4, Conc. 0.05 ppm, Botrytis cinerea in tomato, preventive): 33%; Observed Efficacy (%) (Botrytis cinerea; Table F4, Conc. 0.1 ppm, Botrytis cinerea in tomato, preventive): 42%; Observed Efficacy (%) (Botrytis cinerea; Table F5, Conc. 0.1 ppm, Botrytis cinerea in tomato, preventive): 42%; Observed Efficacy (%) (Botrytis cinerea; Conc. 0.05 ppm, preventive spray on tomato, % control vs untreated): 33%
CCN(C)C=Nc1cc(C)cc(Cc2ccc(C)cc2)c1C [Compound (I-2), N′-(2,5-dimethyl-3-(4-methylbenzyl)phenyl)-N-ethyl-N-methylformimidamide] |  |  |  |  |  |  |  |  |  |  |  |  |  |  |  |  |  |  |  |  | pest or weed control at 1 ppm (Septoria nodorum; [20]): 13%; pest or weed control at 5 ppm (Septoria nodorum; [20]): 23%; pest or weed control at 20 ppm (Septoria nodorum; [20]): 33%; pest or weed control at 1 ppm (Alternaria solani; [23]): 13%; pest or weed control at 5 ppm (Alternaria solani; [23]): 23%; pest or weed control at 20 ppm (Alternaria solani; [23]): 33%; pest or weed control at 1 ppm (Botrytis cinerea; [24]): 23%; pest or weed control at 5 ppm (Botrytis cinerea; [24]): 33%; pest or weed control at 20 ppm (Botrytis cinerea; [24]): 53%; pest or weed control at 0.0001 ppm (Phakopsora pachyrhizi; Phakopsora pachyrhizi, 0.0001 ppm, preventive spray on soybean, read-out: Observed Efficacy (%)): 47%; pest or weed control at 0.001 ppm (Phakopsora pachyrhizi; Phakopsora pachyrhizi, 0.001 ppm, preventive spray on soybean, read-out: Observed Efficacy (%)): 57%; pest or weed control at 0.01 ppm (Phakopsora pachyrhizi; Phakopsora pachyrhizi, 0.01 ppm, preventive spray on soybean, read-out: Observed Efficacy (%)): 68%; pest or weed control at 1 ppm (Pyricularia oryzae; [18]): 13%; pest or weed control at 5 ppm (Pyricularia oryzae; [18]): 23%; pest or weed control at 20 ppm (Pyricularia oryzae; [18]): 37%
Cn1cc(C(=O)Nc2ccccc2-c2cc(F)c(F)c(F)c2)c(C(F)F)n1 [Fluxapyroxad, fluxapyroxad] | 3 | 5 |  |  |  | 40 | 56 |  | 40 |  | 56 | 38 |  |  |  | 46 |  | 59 | 24 | 32 | Observed Efficacy (Alternaria solani; [19]): 40%
